Laboratory results: US10940188B2, “Compounds and methods for treatment and prevention of Flavivirus infection” (priority 2016, dated 2021)

Tests used:
ZIKV PRVABC59 in hNPCs = assay: ZIKV infection of hNPCs (NS1 Western blot); assay type: cell-based, Zika virus
Method: FIGS. 4A-1, 4A-2, 4B-1, 4B-2, 4B-3, 4C-1, 4C-2, 4D-1, and 4D-2. […] Cells were fixed 24 hours post infection and stained for ZIKVE (green) and DAPI (blue). Scale bar: 50 μm. Also shown is the quantification of ZIKV-infected astrocytes with multiple compound concentrations (FIG. 4A-2). Values represent mean±s.d. (n=6; ***P<0.001; One-way ANOVA). Shown in FIG. 4B-3 is virus production from compound-treated iPSC-derived human astrocytes (as in FIG. 2F) (n=3 cultures). Data represent mean±s.d. […] Shown are sample images and quantification (FIGS. 4B-1 and 4B-2). Values represent mean±s.d. (n=2; ***P<0.01; One-way ANOVA). […] Note that Emricasan and PHA-690509 inhibit the increased caspase-3 activity in a concentration-dependent manner in human astrocytes infected with FSS13025-ZIKV or MR766 ZIKV, and improve cell viability as measured by ATP production (FIGS. 4C-1, 4C-2, 4D-1, and 4D-2). […]
SNB-19 cells, BJ astrocytes, or hNPCs were seeded in 12-well plates at approximately 3e5 cells/well. […] Cells and supernatant were harvested 24-48 hours post infection and analyzed by western blot or IFA. Western blot bands were quantified and IFA images counted using ImageJ (NIH, Bethesda, Md.).
SNB-19, BJ astrocyte, or NPCs were seeded in 12-well plates at approximately 3e5 cells/well. […] Cells and supernatant were harvested 24-48 hours post infection and analyzed by western blot or IFA. […]

[1] = tested on: ZIKV production from SNB-19 cells; assay: Infectious ZIKV production from SNB-19 cells, focus-forming unit assay on Vero cells; assay type: cell-based, Zika virus
Method: FIGS. 2A-1, 2A-2, 2B-1, 2B-2, 2C-1, 2C-2, 2D-1, 2D-2, 2D-3, 2E-1, 2E-2, and 2F. […] Screening of select compounds for antiviral activity against ZIKV infection was carried out. Glioblastoma SNB-19 cells were treated with indicated compound at 10×AC50 (determined in the primary caspase screen) for 1 hour prior to inoculation with FSS-13025 (at MOI=1). Cells were harvested 24 hours post infection and analyzed by Western blot for ZIKV-NS1 or GAPDH (FIGS. 2A-1 and 2A-2). Titration of PHA-690509 on glioblastoma cells for anti-ZIKV activity. Three strains of virus (FSS-13025, PRVABC59, and MR766; MOI=1) were tested. Shown are sample western blot images (FIG. 2B-1) and ImageJ quantification (FIG. 2B-2). Values represent mean±s.d. (n=3; ***P<0.001; One-way ANOVA). Titration of Emricasan on SNB-19 cells for anti-ZIKV activity was conducted similarly (FIGS. 2C-1 and 2C-2). Values represent mean±s.d. […] Sample western blot (FIG. 2D-2) and ImageJ quantification (FIG. 2D-3) are shown for infection with the PRVABC59 strain (MOI=1). Results for additional strains are shown in FIGS. 6A-F. Values represent mean±s.d. […] The concentration of NS1 in the medium of infected SNB-19 cells collected 24 hours post-infection was quantified by a ZIKV-NS1 ELISA kit (FIGS. 2E-1 and 2E-2). […] Cell culture supernatant was collected 24 hours after infection, and infectious virions were quantified for focus-forming units (FFU) using Vero cells. […] Curves represent best fits for calculating IC50 values, and the insets report the calculated IC50 value for each compound.
FIGS. 18A, 18B, 18C-1, 18C-2, 18D, 18E, 18F, 18G-1, and 18G-2. […] 24 hours post infection, supernatants from SNB-19 cells were titrated onto naïve vero cells plated in a monolayer in 96-well plates for infectious focus-forming unit assay as previously described and focus forming units quantified. […] Immunofluorescence (IF) staining (FIG. 18C-1) and quantification (FIG. 18C-2) of ZIKV positive SNB-19 cells following infection with one of three ZIKV strains and treatment with emetine at 0.01, 0.1, or 1 μM. […]
FIG. 21. […] IC50's calculated using graphpad PRISM software. […]

Compound | inhibition of ZIKV infection in hNPCs (ZIKV PRVABC59 in hNPCs) | potency on inhibition of ZIKV replication [1] | IC50 ([1]; Zika virus, SNB-19 cells, each of three ZIKV strains, read-out: IC50 of infectious ZIKV production)
CC(=O)Nc1ccc([C@H](C)C(=O)Nc2ncc(C(C)C)s2)cc1 [PHA-690509] | inhibited ZIKV^PR infection | – | –
O=C(Nc1ccc([N+](=O)[O-])cc1Cl)c1cc(Cl)ccc1O [Niclosamide] | inhibited ZIKV^PR infection | submicromolar range | –
CC[C@H]1CN2CCc3cc(OC)c(OC)cc3[C@@H]2C[C@@H]1C[C@H]1NCCc2cc(OC)c(OC)cc21 [Emetine] | – | – | ≤ 10 nM
